Measured values reported in PubChem BioAssay (NCI).
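Values below derive from 48-hour exposures of cells grown in 96-well plates, with endpoints linearly interpolated between the two concentrations bracketing the appropriate inhibition level. Here, GI50 denotes the concentration required for 50% inhibition of growth. The concentration for full growth arrest is given as TGI.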

What was measured:
Assay in all cases: growth of human tumour cells (NCI), 48 h
CCRF-CEM leukemia = system: CCRF-CEM leukemia
COLO 205 colon = system: COLO 205 colon
K-562 leukemia = system: K-562 leukemia
MALME-3M melanoma = system: MALME-3M melanoma
MOLT-4 leukemia = system: MOLT-4 leukemia
NCI-H226 lung = system: NCI-H226 lung
OVCAR-4 ovarian = system: OVCAR-4 ovarian
SF-539 CNS = system: SF-539 CNS
SR leukemia = system: SR leukemia
U251 CNS = system: U251 CNS

## CCCN(CCC)CCCNCc1cc(I)cc(C)c1O
CCRF-CEM leukemia
  GI50: 1.28 µM
  TGI: 6.06 µM
COLO 205 colon
  GI50: 13.8 µM
  TGI: 29 µM
K-562 leukemia
  GI50: 6.12 µM
  TGI: 19.4 µM
MALME-3M melanoma
  GI50: 16.5 µM
  TGI: 31.5 µM
MOLT-4 leukemia
  GI50: 10.7 µM
  TGI: 23.4 µM
NCI-H226 lung
  GI50: 22.3 µM
  TGI: 66.1 µM
OVCAR-4 ovarian
  GI50: 17.9 µM
  TGI: 37.8 µM
SF-539 CNS
  GI50: 14.7 µM
  TGI: 27.9 µM
SR leukemia
  GI50: 7.18 µM
  TGI: 21.2 µM
U251 CNS
  GI50: 15.9 µM
  TGI: 29.4 µM

## CC1=C(C(=O)NCc2ccccc2)C(c2ccc(C3C(C(=O)NCc4ccccc4)=C(C)NC(C)=C3C(=O)NCc3ccccc3)cc2)C(C(=O)NCc2ccccc2)=C(C)N1
CCRF-CEM leukemia
  TGI: > 100 µM
COLO 205 colon
  TGI: 21.3 µM
K-562 leukemia
  TGI: > 100 µM
MALME-3M melanoma
  TGI: 36.3 µM
MOLT-4 leukemia
  TGI: > 100 µM
NCI-H226 lung
  TGI: 33.7 µM
OVCAR-4 ovarian
  TGI: 31.3 µM
SF-539 CNS
  TGI: 5.52 µM
SR leukemia
  TGI: 20.7 µM
U251 CNS
  TGI: 14.4 µM

## CC(=O)N1CCN(C2=Nc3ccccc3CO2)C1=S
CCRF-CEM leukemia
  GI50: 32.9 µM
  TGI: > 100 µM
COLO 205 colon
  GI50: > 100 µM
  TGI: > 100 µM
K-562 leukemia
  GI50: 46.5 µM
  TGI: > 100 µM
MALME-3M melanoma
  GI50: 26 µM
  TGI: 89 µM
MOLT-4 leukemia
  GI50: 41.9 µM
  TGI: > 100 µM
NCI-H226 lung
  GI50: > 100 µM
  TGI: > 100 µM
OVCAR-4 ovarian
  GI50: 65.3 µM
  TGI: > 100 µM
SF-539 CNS
  GI50: > 100 µM
  TGI: > 100 µM
SR leukemia
  GI50: 29.3 µM
  TGI: 68.4 µM
U251 CNS
  GI50: > 100 µM
  TGI: > 100 µM

## COC(=O)Cc1cc(OC)c(OC)cc1Br
CCRF-CEM leukemia
  TGI: > 100 µM
COLO 205 colon
  TGI: > 100 µM
K-562 leukemia
  TGI: > 100 µM
MALME-3M melanoma
  TGI: > 100 µM
MOLT-4 leukemia
  TGI: > 100 µM
NCI-H226 lung
  TGI: > 100 µM
OVCAR-4 ovarian
  TGI: > 100 µM
SR leukemia
  TGI: > 100 µM
U251 CNS
  TGI: > 100 µM

## C#CCC[C@@H]1O[C@@]1(C)CC/C=C(\C)CC/C=C/C=O
CCRF-CEM leukemia
  TGI: 64.8 µM
COLO 205 colon
  TGI: > 100 µM
K-562 leukemia
  TGI: 54 µM
MALME-3M melanoma
  TGI: 48.3 µM
MOLT-4 leukemia
  TGI: 52.9 µM
NCI-H226 lung
  TGI: > 100 µM
SF-539 CNS
  TGI: 38.7 µM
SR leukemia
  TGI: > 100 µM
U251 CNS
  TGI: 39.3 µM

## CC1=CCC[C@@]2(C)C(CC[C@@H]2C(C)/C=C/C(C)C)c2ccc(cc2C(=O)O)C[C@@H](O)CC1 (stereo partly drawn)
CCRF-CEM leukemia
  TGI: 20.8 µM
K-562 leukemia
  TGI: 26.4 µM
MALME-3M melanoma
  TGI: 37.7 µM
MOLT-4 leukemia
  TGI: 28 µM
NCI-H226 lung
  TGI: 32.7 µM
OVCAR-4 ovarian
  TGI: 25.6 µM
SF-539 CNS
  TGI: 21 µM
SR leukemia
  TGI: 33 µM
U251 CNS
  TGI: 16 µM

## CCSc1nnc2c(-c3ccccc3)n[nH]c2n1
CCRF-CEM leukemia
  TGI: > 100 µM
COLO 205 colon
  TGI: > 100 µM
K-562 leukemia
  TGI: > 100 µM
MOLT-4 leukemia
  TGI: > 100 µM
NCI-H226 lung
  TGI: > 100 µM
OVCAR-4 ovarian
  TGI: > 100 µM
SF-539 CNS
  TGI: > 100 µM
SR leukemia
  TGI: > 100 µM
U251 CNS
  TGI: > 100 µM

## CC(C)=CCN=C(N)N
CCRF-CEM leukemia
  TGI: > 100 µM
COLO 205 colon
  TGI: > 100 µM
MALME-3M melanoma
  TGI: > 100 µM
MOLT-4 leukemia
  TGI: > 100 µM
NCI-H226 lung
  TGI: > 100 µM
OVCAR-4 ovarian
  TGI: > 100 µM
SF-539 CNS
  TGI: > 100 µM
SR leukemia
  TGI: 83.6 µM
U251 CNS
  TGI: > 100 µM

## O=S(=O)(Nc1ncccn1)c1ccc(N=Nc2ccc(O)c3ncccc23)cc1
CCRF-CEM leukemia
  GI50: 3.29 µM
  TGI: 24.8 µM
COLO 205 colon
  GI50: 26.2 µM
  TGI: > 100 µM
K-562 leukemia
  GI50: 3.23 µM
  TGI: 61.2 µM
MOLT-4 leukemia
  GI50: 5.68 µM
  TGI: 51.2 µM
NCI-H226 lung
  GI50: 13.4 µM
  TGI: 30.5 µM
OVCAR-4 ovarian
  GI50: 4.51 µM
  TGI: 71.7 µM
SF-539 CNS
  GI50: 4.67 µM
  TGI: 21.9 µM
SR leukemia
  GI50: 4.62 µM
  TGI: 63 µM
U251 CNS
  GI50: 4.71 µM
  TGI: 30.4 µM

## Cc1ccc(C(=O)O/N=C2/CCCC/C2=C\c2ccccc2)cc1
CCRF-CEM leukemia
  TGI: > 100 µM
COLO 205 colon
  TGI: > 100 µM
K-562 leukemia
  TGI: 38.6 µM
MALME-3M melanoma
  TGI: > 100 µM
NCI-H226 lung
  TGI: > 100 µM
OVCAR-4 ovarian
  TGI: > 100 µM
SF-539 CNS
  TGI: > 100 µM
SR leukemia
  TGI: > 100 µM
U251 CNS
  TGI: > 100 µM

## CCC[CH2][Sn]([CH2]CCC)([O]C(=O)c1c(F)cccc1F)[O]C(=O)c1c(F)cccc1F
COLO 205 colon
  GI50: 0.574 µM
  TGI: 1.74 µM
K-562 leukemia
  GI50: 0.355 µM
  TGI: > 100 µM
MALME-3M melanoma
  GI50: 0.462 µM
  TGI: 1.8 µM
MOLT-4 leukemia
  GI50: 0.239 µM
  TGI: 0.818 µM
NCI-H226 lung
  GI50: 1.89 µM
  TGI: 3.32 µM
OVCAR-4 ovarian
  GI50: 1.28 µM
  TGI: 2.55 µM
SF-539 CNS
  GI50: 1.02 µM
  TGI: 2.2 µM
SR leukemia
  GI50: 0.318 µM
  TGI: 2.14 µM
U251 CNS
  GI50: 0.443 µM
  TGI: 1.6 µM

## COc1cc2c(/C=N\N=C(N)N)c(Cl)[nH]c2cc1C
CCRF-CEM leukemia
  GI50: 3.89 µM
  TGI: 17.5 µM
COLO 205 colon
  GI50: 2.67 µM
  TGI: 8.82 µM
K-562 leukemia
  GI50: 4.36 µM
  TGI: 19.7 µM
MOLT-4 leukemia
  GI50: 2.82 µM
  TGI: 7.41 µM
NCI-H226 lung
  GI50: 10.5 µM
  TGI: 26.3 µM
SF-539 CNS
  GI50: 10.2 µM
  TGI: 25 µM
SR leukemia
  GI50: 3.34 µM
  TGI: 8.22 µM
U251 CNS
  GI50: 4.62 µM
  TGI: 17.7 µM

## Nc1ncnc2c1ncn2C1OC(COP(=O)(O)CP(=O)(O)O)C(O)C1O (stereo not drawn)
CCRF-CEM leukemia
  TGI: > 100 µM
COLO 205 colon
  TGI: > 100 µM
K-562 leukemia
  TGI: > 100 µM
MALME-3M melanoma
  TGI: > 100 µM
MOLT-4 leukemia
  TGI: > 100 µM
NCI-H226 lung
  TGI: > 100 µM
SF-539 CNS
  TGI: > 100 µM
SR leukemia
  TGI: > 100 µM
U251 CNS
  TGI: > 100 µM

## CCCCCCCCCCCOC(=S)NC(C)C
CCRF-CEM leukemia
  TGI: 61.4 µM
K-562 leukemia
  TGI: 46.4 µM
MALME-3M melanoma
  TGI: 49.5 µM
MOLT-4 leukemia
  TGI: 36.2 µM
OVCAR-4 ovarian
  TGI: 52 µM
SF-539 CNS
  TGI: 35.4 µM
SR leukemia
  TGI: 44.3 µM
U251 CNS
  TGI: 30.2 µM

## CC1=CC2CC(C)=C(CC[C@]3(C)CC[C@H]([C@@H](C)C(=O)O)OO3)C(C)(C)C2CC1 (stereo partly drawn)
CCRF-CEM leukemia
  TGI: 0.493 µM
COLO 205 colon
  TGI: 1.36 µM
K-562 leukemia
  TGI: 0.471 µM
MALME-3M melanoma
  TGI: 2.02 µM
NCI-H226 lung
  TGI: 3.45 µM
OVCAR-4 ovarian
  TGI: 0.971 µM
SF-539 CNS
  TGI: 2.68 µM
SR leukemia
  TGI: 0.382 µM
U251 CNS
  TGI: 1.01 µM

## Cc1c2cc[nH]c(=O)c2c(C)c2c1[nH]c1cc(OCCN3CCN(C)CC3)ccc12
CCRF-CEM leukemia
  GI50: 1.58 µM
  TGI: 8.99 µM
COLO 205 colon
  GI50: 0.353 µM
  TGI: 2.2 µM
K-562 leukemia
  GI50: 0.949 µM
  TGI: 10.7 µM
MOLT-4 leukemia
  GI50: 0.456 µM
  TGI: 5.51 µM
NCI-H226 lung
  GI50: 0.503 µM
  TGI: 2.38 µM
OVCAR-4 ovarian
  GI50: 1.17 µM
  TGI: 4.82 µM
SF-539 CNS
  GI50: 1.31 µM
  TGI: 2.77 µM
SR leukemia
  GI50: 0.314 µM
  TGI: 12 µM
U251 CNS
  GI50: 0.953 µM
  TGI: 6.66 µM

## COc1cc(C(=O)OCCCCCCCCCCC[P+](c2ccccc2)(c2ccccc2)c2ccccc2)ccc1O
CCRF-CEM leukemia
  GI50: 0.434 µM
  TGI: 2.52 µM
COLO 205 colon
  GI50: 1.49 µM
  TGI: 3.06 µM
MOLT-4 leukemia
  GI50: 0.557 µM
  TGI: 4.31 µM
SR leukemia
  GI50: 0.364 µM
  TGI: 2.31 µM
